From US8889688B2, “Piperazines as antimalarial agents” (Actelion Pharmaceuticals Ltd., priority 2011, dated 2014)
Read-outs that look alike come from different tables or passages of the source.

Key:
[1] = system: erythrocytic stages of P. falciparum NF54; test: Plasmodium falciparum in vitro assay, [3H] hypoxanthine incorporation; format: cell-based; conditions: Plasmodium falciparum, Erythrocyte, 72 h, P. falciparum NF54 in human red blood cells, 48 h + 24 h incubation
Method: In Vitro Antimalarial Activity: Plasmodium falciparum In Vitro Assay In vitro activity against erythrocytic stages of P. falciparum in human red blood cells is determined using a [^3H] hypoxanthine incorporation assay. […] Thereafter, the parasite cultures incubated in screening medium containing washed human red blood cells at 2.5% hematocrit (0.3% parasitemia) are added to the serially diluted compounds and incubated in a humidifying atmosphere at 37° C., 4% CO2, 3% O2, and 93% N2. After 48 h, [^3H] hypoxanthine (0.5 μCi) is added to each well of a plate. The plates are incubated for a further 24 h under the same conditions then harvested with a Betaplate cell harvester (Wallac) and washed with distilled water. The dried filters are inserted into a plastic foil with 10 mL of scintillation fluid, and counted in a Betaplate liquid scintillation counter. IC50 values are calculated from sigmoidal inhibition curves using Microsoft Excel.

[2] = system: P. berghei strain GFP-ANKA; test: In vivo antimalarial efficacy study in infected NMRI mice; conditions: Plasmodium berghei; female NMRI mice infected with P. berghei GFP-ANKA; single oral dose of 100 mg/kg 24 h after infection; parasitemia 48 h after drug treatment (day 3); read-out: Activity (inhibition of parasitemia) expressed as a percent relative to the control group
Method: In Vivo Antimalarial Efficacy Studies
In vivo antimalarial activity is assessed for groups of three female NMRI mice (20-22 g) intravenously infected on day 0 with P. berghei strain GFP-ANKA (0.2 mL heparinized saline suspension containing 2×10^7 parasitized erythrocytes). In control mice, parasitemia typically rises to approximately 40% by day 3 after infection. Compounds are formulated in Tween 80/ethanol (7%/3%) usually at concentrations of 10 mg/mL. Compounds are administered in a volume of 10 mL/kg orally as single doses (1×100 mg/kg, 24 h after infection). 48 h after drug treatment (day 3 post-infection), 1 μl tail blood is taken, resuspended in 1 mL PBS buffer and parasitemia determined with a FACScan (Becton Dickinson) by counting 100′000 red blood cells. Activity is calculated as the difference between the mean value of the control group and treated groups expressed as a percent relative to the control group.

[3] = screening medium with Albumax (5 g/L), read-out: IC50 on NF54 (with Albumax)
[4] = screening medium with human serum (50% final concentration), read-out: IC50 on NF54 (with 50% Serum)

Structure (SMILES) | IC50 [1, 3] | IC50 [1, 4] | inhibition in vivo at 100 mg/kg [2]
CCCOc1ccc(C=CC(=O)N(Cc2ccc(N3CCN(C(C)=O)CC3)cc2)[C@@H](Cc2ccccc2)C(=O)N2CCN(Cc3ccc(N(C)C)cc3)CC2)cc1 [Example 18, (S)-N-[4-(4-Acetyl-piperazin-1-yl)-benzyl]-N-{1-benzyl-2-[4-(4-dimethylamino-benzyl)-piperazin-1-yl]-2-oxo-ethyl}-3-(4-propoxy-phenyl)-acrylamide] | 2.5 nM | 11.8 nM | 99.1%
CC(=O)N1CCN(c2ccc(CN(C(=O)C=Cc3ccc(S(C)(=O)=O)cc3)[C@@H](Cc3ccccc3)C(=O)N3CCN(Cc4ccccc4)CC3)cc2)CC1 [Example 6, (S)-N-[4-(4-Acetyl-piperazin-1-yl)-benzyl]-N-[1-benzyl-2-(4-benzyl-piperazin-1-yl)-2-oxo-ethyl]-3-(4-methanesulfonyl-phenyl)-acrylamide] | 9.4 nM | 32 nM | 80.4%
CCCOc1ccc(C=CC(=O)N(Cc2ccc(N3CCN(C(C)=O)CC3)cc2)[C@@H](Cc2ccccc2)C(=O)N2CCN(Cc3ccccc3)CC2)cc1 [Example 8, (S)-N-[4-(4-Acetyl-piperazin-1-yl)-benzyl]-N-[1-benzyl-2-(4-benzyl-piperazin-1-yl)-2-oxo-ethyl]-3-(4-propoxy-phenyl)-acrylamide] | 1.8 nM | 13.4 nM | 99.4%
CC(=O)N1CCN(c2ccc(CN(C(=O)C=Cc3ccc(OC(F)F)cc3)[C@@H](Cc3ccccc3)C(=O)N3CCN(Cc4ccc(N(C)CCO)cc4)CC3)cc2)CC1 [Example 60, (S)-N-[4-(4-Acetyl-piperazin-1-yl)-benzyl]-N-[1-benzyl-2-(4-{4-[(2-hydroxy-ethyl)-methyl-amino]-benzyl}-piperazin-1-yl)-2-oxo-ethyl]-3-(4-difluoromethoxy-phenyl)-acrylamide] | 3 nM | 8.1 nM | 78.3%
CCc1ccc(C=CC(=O)N(Cc2ccc(N3CCN(C(C)=O)CC3)cc2)[C@@H](Cc2ccccc2)C(=O)N2CCN(Cc3ccc(Cl)cc3)CC2)cc1 [Example 40, (S)-N-[4-(4-Acetyl-piperazin-1-yl)-benzyl]-N-{1-benzyl-2-[4-(4-chloro-benzyl)-piperazin-1-yl]-2-oxo-ethyl}-3-(4-ethyl-phenyl)-acrylamide] | 1.7 nM | 10.5 nM | 93.6%
CC(=O)N1CCN(c2ccc(CN(C(=O)C=Cc3ccc(C(F)(F)F)cc3)[C@@H](Cc3ccccc3)C(=O)N3CCN(Cc4ccc(N(C)CCO)cc4)CC3)cc2)CC1 [Example 50, (S)-N-[4-(4-Acetyl-piperazin-1-yl)-benzyl]-N-[1-benzyl-2-(4-{4-[(2-hydroxy-ethyl)-methyl-amino]-benzyl}-piperazin-1-yl)-2-oxo-ethyl]-3-(4-trifluoromethyl-phenyl)-acrylamide] | 1.6 nM | 9.3 nM | 98%
CCOc1ccc(C=CC(=O)N(Cc2ccc(N3CCN(C(C)=O)CC3)cc2)[C@@H](Cc2ccccc2)C(=O)N2CCN(Cc3ccc(N(C)CCO)cc3)CC2)cc1 [Example 54, (S)-N-[4-(4-Acetyl-piperazin-1-yl)-benzyl]-N-[1-benzyl-2-(4-{4-[(2-hydroxy-ethyl)-methyl-amino]-benzyl}-piperazin-1-yl)-2-oxo-ethyl]-3-(4-ethoxy-phenyl)-acrylamide] | 1.6 nM | 5.9 nM | 93.7%
CCCOc1ccc(C=CC(=O)N(Cc2ccc(N3CCN(C(C)=O)CC3)cc2)[C@@H](Cc2ccccc2)C(=O)N2CCN(Cc3ccc(S(=O)(=O)CC)cc3)CC2)cc1 [Example 48, (S)-N-[4-(4-Acetyl-piperazin-1-yl)-benzyl]-N-{1-benzyl-2-[4-(4-(ethylsulfonyl)-benzyl)-piperazin-1-yl]-2-oxo-ethyl}-3-(4-propoxyphenyl)-acrylamide] | 0.5 nM | 1.6 nM | 99%
CCOc1ccc(C=CC(=O)N(Cc2ccc(N3CCN(C(C)=O)CC3)cc2)[C@@H](Cc2ccccc2)C(=O)N2CCN(Cc3ccc(N(C)CCO)cc3)CC2)cn1 [Example 53, (S)-N-[4-(4-Acetyl-piperazin-1-yl)-benzyl]-N-[1-benzyl-2-(4-{4-[(2-hydroxy-ethyl)-methyl-amino]-benzyl}-piperazin-1-yl)-2-oxo-ethyl]-3-(6-ethoxy-pyridin-3-yl)-acrylamide] | 4.3 nM | 12.4 nM | 52.3%
CCOc1ccc(C=CC(=O)N(Cc2ccc(N3CCN(C(C)=O)CC3)cc2)[C@@H](Cc2ccccc2)C(=O)N2CCN(Cc3ccc(C#N)cc3)CC2)cc1 [Example 25, (S)-N-[4-(4-Acetyl-piperazin-1-yl)-benzyl]-N-{1-benzyl-2-[4-(4-cyano-benzyl)-piperazin-1-yl]-2-oxo-ethyl}-3-(4-ethoxy-phenyl)-acrylamide] | 1.2 nM | 4.7 nM | 99.1%
CCCOc1ccc(C=CC(=O)N(Cc2ccc(N3CCN(C(C)=O)CC3)cc2)[C@@H](Cc2ccccc2)C(=O)N2CCN(Cc3ccc(Cl)cc3)CC2)cc1 [Example 38, (S)-N-[4-(4-Acetyl-piperazin-1-yl)-benzyl]-N-{1-benzyl-2-[4-(4-chloro-benzyl)-piperazin-1-yl]-2-oxo-ethyl}-3-(4-propoxy-phenyl)-acrylamide] | 1.8 nM | 9 nM | 98.5%
CC(=O)N1CCN(c2ccc(CN(C(=O)C=Cc3ccc(OC(F)F)cc3)[C@@H](Cc3ccccc3)C(=O)N3CCN(Cc4ccc(N(C)C)cc4)CC3)cc2)CC1 [Example 21, (S)-N-[4-(4-Acetyl-piperazin-1-yl)-benzyl]-N-{1-benzyl-2-[4-(4-dimethylamino-benzyl)-piperazin-1-yl]-2-oxo-ethyl}-3-(4-difluoromethoxy-phenyl)-acrylamide] | 1.9 nM | 7 nM | 98.8%
CC(=O)N1CCN(c2ccc(CN(C(=O)C=Cc3ccc(OC(C)C)cc3)[C@@H](Cc3ccccc3)C(=O)N3CCN(Cc4ccc(C#N)cc4)CC3)cc2)CC1 [Example 29, (S)-N-[4-(4-Acetyl-piperazin-1-yl)-benzyl]-N-{1-benzyl-2-[4-(4-cyano-benzyl)-piperazin-1-yl]-2-oxo-ethyl}-3-(4-isopropoxy-phenyl)-acrylamide] | 1.1 nM | 3.7 nM | 99.2%
CC(=O)N1CCN(c2ccc(CN(C(=O)C=Cc3ccc(OC(F)(F)F)cc3)[C@@H](Cc3ccccc3)C(=O)N3CCN(Cc4ccc(C#N)cc4)CC3)cc2)CC1 [Example 33, (S)-N-[4-(4-Acetyl-piperazin-1-yl)-benzyl]-N-{1-benzyl-2-[4-(4-cyano-benzyl)-piperazin-1-yl]-2-oxo-ethyl}-3-(4-trifluoromethoxy-phenyl)-acrylamide] | 3.3 nM | 10.9 nM | 97.4%
CC(=O)N1CCN(c2ccc(CN(C(=O)C=Cc3ccc(OC(C)C)cc3)[C@@H](Cc3ccccc3)C(=O)N3CCN(Cc4ccc(S(C)(=O)=O)cc4)CC3)cc2)CC1 [Example 44, (S)-N-[4-(4-Acetyl-piperazin-1-yl)-benzyl]-N-{1-benzyl-2-[4-(4-(methylsulfonyl)-benzyl)-piperazin-1-yl]-2-oxo-ethyl}-3-(4-isopropoxyphenyl)-acrylamide] | 0.4 nM | 2.8 nM | 99%
CC(=O)N1CCN(c2ccc(CN(C(=O)C=Cc3ccc(C(C)(C)C)cc3)[C@@H](Cc3ccccc3)C(=O)N3CCN(Cc4ccc(C#N)cc4)CC3)cc2)CC1 [Example 34, (S)-N-[4-(4-Acetyl-piperazin-1-yl)-benzyl]-N-{1-benzyl-2-[4-(4-cyano-benzyl)-piperazin-1-yl]-2-oxo-ethyl}-3-(4-tert-butyl-phenyl)-acrylamide] | 0.5 nM | 3.8 nM | 99.2%
COc1ccc(C=CC(=O)N(Cc2ccc(N3CCN(C(C)=O)CC3)cc2)[C@@H](Cc2ccccc2)C(=O)N2CCN(Cc3ccc(N(C)CCO)cc3)CC2)cn1 [Example 52, (S)-N-[4-(4-Acetyl-piperazin-1-yl)-benzyl]-N-[1-benzyl-2-(4-{4-[(2-hydroxy-ethyl)-methyl-amino]-benzyl}-piperazin-1-yl)-2-oxo-ethyl]-3-(6-methoxy-pyridin-3-yl)-acrylamide] | 10 nM | 33 nM | < 40%
